Results published in patent US6977251B2, “5-androstene-3β, 17α diol as an inhibitor of tumor growth” (priority 1997, dated 2005).
Where two headings read alike, the source gives them in different places.

Experiments:
P388D1 cells = details: RU486 at 0.5 μM and 1.0 μM
Experimental: (§1) For cell proliferation assays, cell suspensions were prepared by trypsinization of cells from cultures prepared in accord with methods described above. Cell viability was determined by trypan blue exclusion. The cells were then seeded in flat-bottom 96-well microtiter plates at a density of 2×10^3 cells/well and were allowed to rest for 48 hours in order to adhere. Non-adherent dead cells were removed by aspiration. Cells were then grown in media without phenol red. Some of the media contained supplements as indicated above. […] The cells were then grown for six days. Media was changed on the samples every 48 hours. On day 6, cells were pulsed with 1 μCi[…]-thymidine for the last 6 hours of incubation before harvesting onto glass filter using a HPD cell harvester (Cambridge Technology, Watertown, Mass.) and counted on a KLB scintillation counter.

ZR-75-1 cells [1] = experiment: cells; details: for cell proliferation (3H-thymidine): six day period
Experimental: The ZR-75-1 cell line (passage 89) was obtained from the American Type Culture Collection (Rockville, Md.). The cells were cultured in RPMI-1640 medium containing 10% heat-inactivated fetal calf serum, 200 μM L-glutamine, […] HEPES, 1.5 U/ml penicillin, and 1.5 μg/ml streptomycin in 5% CO2 at 37° C. The cells were passaged twice weekly.
(§2) Cells were first seeded at initial density of 1×10^5 cells per ml in quadruplicates in 24 multi-well flat bottom plates (Costar). Cells were then allowed to adhere and grow in phenol red-free […] media supplemented with 10% heat-inactivated fetal calf serum (FCS), 200 μM L-glutamine, 10 mM HEPES, 2.5 U/ml penicillin and 2.5 μg/ml streptomycin in 5% CO2 at 37° C. After 48 hours, four wells were sacrificed and counted to determine plating efficiency. In the remaining wells, medium was removed by aspiration and cells in each well were exposed to the media containing the specified steroid. The controls containing only medium or medium with vehicle were also prepared. In all samples, medium was changed every 48 hours. At the pre-established time-point. Cells were removed by trypsinization and washed. Cell number and viability were determined by trypan blue exclusion using a hemocytometer. Parallel cultures were also run to determine cell proliferation.
as §1
ZR-75-1 cells (2×10^3) were treated as described above over a six day period with differing concentrations of αAED or with vehicle-only cultures. The medium was changed every 48 hours. Cells were pulsed with ^3H-thymidine for the last six hours of incubation.

ZR-75-1 cells [2] = details: trypan blue exclusion
Experimental: as §2

RAW 264.7 = system: RAW 264.7
Experimental: as §1
Effects of αAED at doses of 50 ηM and 100 ηM doses on murine macrophage myeloma cells (RAW 264.7, obtained from the American Type Culture Collection) was studied.

Compound | effect on growth of P388D1 cells in combination with RU486 (P388D1 cells) | cell proliferation in combination with RU486 (ZR-75-1 cells [1]; 0.1 μl concentrations of αAED with 0.5 μM RU486) | cell proliferation (3H-thymidine) (ZR-75-1 cells [1]; 6.25 ηM) | cell proliferation (3H-thymidine) (ZR-75-1 cells [1]; 12.5 ηM) | cell proliferation (3H-thymidine) (ZR-75-1 cells [1]; 50 ηM) | IC50 (ZR-75-1 cells [1]; Homo sapiens, ZR-75-1, read-out: half-maximal dose of anti-proliferative effect) [nM] | maximal dose of anti-proliferative effect (ZR-75-1 cells [1]; ZR-75-1 cells, dose and time-dependent) | cell proliferation in the presence of estradiol (ZR-75-1 cells [1]; higher doses of αAED, 1 ηM estradiol, 6 day period) | concentration at which growth of ZR-75-1 cells was significantly inhibited (ZR-75-1 cells [1]; tritiated thymidine incorporation, in vitro) | cell proliferation in the presence of βAED (ZR-75-1 cells [1]; varied αAED, βAED constant at 2.5 ηM, six days) | cell proliferation in combination with RU486 (ZR-75-1 cells [1]; αAED with RU486 at 1 μM) | cytotoxicity (cell count and viability) (ZR-75-1 cells [2]) | proliferation of RAW 264.7 cells (RAW 264.7; 50 ηM) | proliferation of RAW 264.7 cells (RAW 264.7; 100 ηM) | antiproliferative effect on growth of ZR-75-1 cells (ZR-75-1 cells [1]; alone at 100 ηM)
C[C@]12CC[C@H]3[C@@H](CC=C4C[C@@H](O)CC[C@@]43C)[C@@H]1CC[C@H]2O [αAED, 5-androstene 3β,17α diol] | increased effectiveness over use of one agent | synergistic action to decrease proliferation of cells | increasing proliferation | decreasing cell proliferation | marked decrease | 50 | 100 ηM | suppressed proliferation even in the presence of estradiol | ≥ 12.5 ηM | decreased proliferation at all concentrations | synergism was shown to be even greater | not toxic to the cells | significant inhibition of proliferation | significant inhibition of proliferation | 
C[C@]12CC[C@H]3[C@@H](CC=C4C[C@@H](O)CC[C@@]43C)[C@@H]1CC[C@@H]2O [βAED, 5-androstene 3β,17β diol, reference compound] |  |  |  |  |  |  |  |  |  |  |  |  |  |  | did not have any antiproliferative effect
